# Experimental data published in patent US20250318997A1, “COMPOSITIONS AND METHODS FOR PREVENTING DENTAL CARIES” (THE TRUSTEES OF THE UNIVERSITY OF PENNSYLVANIA, priority 2022, published 2025).
# Experiments:
# [1] = TMB colorimetric assay for peroxidase-like (catalytic) activity / ROS; conditions: for effect of the salt on the catalytic activity of Fer: salt 20 (or 30) μg/ml, Fer 20 μg of Fe/ml, pH 4.5, FIGS. 4A-4C
# Excerpt: To explore whether SnF2 could produce ROS, the 3,3′,5,5′-tetramethylbenzidine (TMB) colorimetric assay was used for peroxidase-like activity following a previously published protocol, with some modifications. TMB is a chromogenic compound that yields a blue color upon oxidation with an absorption peak at 652 nm in the presence of H2O2.
# ROS measurement using 3,3′,5,5′-tetramethylbenzidine (TMB) assay: The catalytic activity of Fer+SnF2 was investigated by a colorimetric assay using TMB (Sigma-Aldrich) as a probe, which generates a blue color in the presence of H2O2 after reacting with ROS. Briefly, the stock solution of TMB was made in DMF (25 mg/ml). Fer (0.5 mg of Fe/ml) and SnF2 (0.5 mg/ml, Sigma-Aldrich) were incubated (separately or combined) at room temperature in 0.1 M of sodium acetate buffer (pH 4.5) for 1 h. Afterward, 40 μl of the testing sample (Fer, SnF2, or Fer+SnF2) and 4 μl of TMB (100 μg) were added into 922 μl of 0.1 M sodium acetate buffer (pH 4.5), and absorbance was recorded at 652 nm. Then, 34 μl of H2O2 (1%, v/v) was added. After 10 min additional incubation in the dark, catalytic activities was monitored at 652 nm. For the control, 40 μl of the buffer solution was taken instead of the testing sample. To examine the effect of DMSO, a quencher of hydroxyl radical (·OH), various amounts of DMSO (0-10%) were used. The effect of pH on the catalytic activity of the combined treatment of Fer+SnF2 was determined at three different pH values (4.5, 5.5, and 6.5), as described above. The comparison of the catalytic activity of Fer+NaF and Fer+SnF2 was also conducted using the same protocol as described above, except after adding H2O2, the reaction mixture was incubated only for 5 min.
# Subsequently, 40 μl of the combined mixture of Fer (20 μg of Fe) and BaF2 (20 or 30 μg) and 4 μl of TMB (100 μg) were mixed into 922 μl of 0.1 M sodium acetate buffer (pH 4.5). Afterward, H2O2 (1%) was added. Finally, the absorbance of TMB was monitored at 652 nm after 5 min of incubation. In a similar way, the catalytic activity of SnCl2 (final concentration 20 μg/ml, Sigma-Aldrich) was also investigated. The effect of incubation time on the catalytic activity was investigated after incubating Fer and SnF2 for a predetermined time.
# Additionally, the catalytic activity of the released iron and nanoparticle pellet was investigated at pH 4.5 via TMB assay.
# S. mutans biofilm = experiment: In vitro biofilm model on saliva-coated hydroxyapatite disc: viable cells (CFU) and biomass (dry weight); type: cell-based, Streptococcus mutans UA159
# Method: Antibiofilm activity was evaluated using different concentrations of Fer and SnF2 in the presence of H2O2 using the saliva-coated hydroxyapatite disc (tooth enamel mimic) model in the presence of sucrose. Initially, Fer (1 mg of Fe/ml) was mixed with various concentrations of SnF2 (0-250 ppm of F), and the number of viable cells and biomass were determined.
# Biofilms were formed using the saliva-coated hydroxyapatite disc (sHA) model as described elsewhere. Streptococcus mutans UA159, a proven virulent and well-characterized cariogenic pathogen, were grown in ultra-filtered (10 kDa, cutoff; Millipore, Billerica, MA) tryptone-yeast extract (UFTYE) broth at 37° C. and 5% CO2 to mid-exponential phase. Briefly, HA discs (surface area of 2.7±0.2 cm^2; Clarkson Chromatography Inc., South Williamsport, PA) were vertically suspended in 24-well plates using a custom-made wire disc holder and coated with filter-sterilized human saliva for 1 h at 37° C. Each sHA disc was inoculated with ˜2×10^5 CFU of S. mutans per ml in UFTYE containing 1% sucrose at 37° C. and 5% CO2. Topical treatment of Fer and SnF2 or vehicle control was performed twice daily for 10 min at 0, 6, 19, and 29 h. The culture medium was changed twice daily (at 19 h and 29 h). At the end of the experimental period (43 h), the biofilms were placed in 2.8 ml of H2O2 (1%, v/v) for 5 min. After H2O2 exposure, the biofilms were removed and homogenized via bath sonication followed by probe sonication (at an output of 7 W for 30 s). The homogenized suspension was serially diluted and plated onto blood agar plates using an automated EddyJet Spiral Plater (IUL, SA, Barcelona, Spain). The numbers of viable cells in each biofilm were calculated by counting CFU. The remaining suspension was centrifuged at 5500 g for 10 min, the resulting cell pellets were then washed, oven-dried, and weighed. SnF2 and NaF treatment groups were performed according to the same procedure.
# [2] = Hydroxyl radical production by PL using coumarin; conditions: pH 4.5, H2O2; FIGS. 3F, 15
# Method: Comparison of hydroxyl radical (·OH) production: ·OH generated by Fer and Fer+SnF2 in 0.1 M sodium acetate buffer (pH 4.5) was compared by PL technique using coumarin (Sigma-Aldrich) as a ·OH trapping molecule. First, stock solution of Fer (0.5 mg of Fe/ml) with or without SnF2 (0.5 mg/ml) was incubated in 0.1 M sodium acetate buffer (pH 4.5) for 1 h. Afterward, Fer (20 μg of Fe/ml) with or without SnF2 (20 μg/ml) was mixed with coumarin (0.1 mM) in a 10 mm path length cuvette, and then H2O2 (1%, v/v) was added to the reaction mixture to initiate the reaction. The PL intensity was recorded at 452 nm at different incubation times with an excitation wavelength of 332 nm. For the control, all the experimental conditions were the same, except that the testing samples were not used.
# [3] = Stability of SnF2 in aqueous solution / sodium acetate buffer (photographs, UV-vis); conditions: SnF2 alone, 0.1 M sodium acetate buffer pH 5.5; FIG. 2B
# Excerpt: It is noteworthy that SnF2 has limited stability in aqueous solutions owing to its high susceptibility to hydrolysis and oxidation, requiring chemical additives (e.g., chelating agents) or water removal, which can reduce fluoride bioavailability. […] To further investigate the stability of SnF2 in the presence of Fer, SnF2 (250 ppm of F) was mixed with increasing amounts of Fer in 0.1 M sodium acetate buffer at different pH values.
# The peak at 4.0-4.2 ppm (denoted as “a”) is attributed to the protons of the carboxymethyl moieties, as determined previously. […] Note that similar ^1H NMR studies of SnF2 and Fer are not possible due to the superparamagnetic nature of Fer interfering with ^1H NMR measurements.
# The Fer formulation also contains mannitol, which is an antioxidant. Since antioxidants can prevent the oxidation of SnF2, SnF2 was added to various amounts of mannitol (1-10 mg/ml).
# [4] = Stability of Fer/SnF2 with citric acid after 1 month at room temperature (photographs, hydrodynamic diameter); type: physicochemical
# Method: FIG. 21 provides photographs of Fer+SnF2 when mixed with various amounts of citric acid after 1 month incubation at room temperature.
smiles,measurement,setting,value
[Cl][Sn][Cl] [SnCl2],effect of the salt on the catalytic activity of Fer,[1],enhanced the catalytic activity of Fer
"[Ba+2].[F-].[F-] [BaF2, barium fluoride]",effect of the salt on the catalytic activity of Fer,[1],Neither NaF nor BaF2 increased the catalytic activity of Fer
"[F][Sn][F] [SnF2, stannous fluoride]",growth of S. mutans (bacterial viability),"S. mutans biofilm; 1000 ppm of F, compared with NaF, FIG. 9A",significantly inhibit the growth of S. mutans
same,biomass,"S. mutans biofilm; 1000 ppm of F, compared with NaF, FIG. 9B",reduce biomass
same,biomass,"S. mutans biofilm; SnF2 250 ppm of F alone, FIG. 1D",substantially reduce biomass
same,ROS production / catalytic activity (TMB absorption at 652 nm),"[1]; pH 4.5, H2O2, FIGS. 3A, 3B",did not produce a noticeable amount of ROS
same,effect of post-mixed SnF2 on the catalytic activity of Fer,"[1]; post-mixed, not pre-mixed and incubated, FIG. 20",reduced the catalytic activity of Fer
same,·OH production (PL intensity of 7-hydroxycoumarin at 452 nm),[2],did not produce a noticeable amount of ·OH
same,appearance of SnF2 solution,[3],Immediate aggregation
"[F-].[Na+] [NaF, sodium fluoride]",effect of the salt on the catalytic activity of Fer,[1],Neither NaF nor BaF2 increased the catalytic activity of Fer
O=C(O)CC(O)(CC(=O)O)C(=O)O [citric acid],amount of citric acid that improves the stability of the Fer/SnF2 formulation,[4],≥ 125 µg/mL
